According to patent publication US9879013B2, “Purinone derivative” (ONO PHARMACEUTICAL CO., LTD., priority 2010, dated 2018):
pIC50: −log10 of the molar value.

Assays:
Fyn = Fyn (Homo sapiens (Human), UniProt P06241); assay: Fyn inhibitory activity, selectivity for Btk (Z'-LYTE kinase assay); format: biochemical; settings: ratio of the IC50 values of the individual kinases
Protocol: The inhibitory activity for other kinases (for example, Lck, Fyn, and LynA (all from Invitrogen Corporation) was measured in the same manner as described above using the particular kinase in place of the Btk.

Human CYP2C19 = Human CYP2C19 (Homo sapiens (Human), UniProt P33261); assay: Inhibitory action on human CYP2C19; format: in vitro ADME
Protocol: Measurement of the Inhibitory Activity on Drug-Metabolizing Enzymes (Inhibitory Action on Human CYP2C8 and Human CYP2C19)
The reaction was carried out in a 96-well plate. The positive control substances (CYP2C8: ketoconazole, CYP2C19: tranylcypromine) were adjusted (CYP2C8: 0.6 and 6 mmol/L, CYP2C19: 0.9 and 9 mmol/L) with DMSO to concentrations that were 300 times the final concentration, and solutions were prepared (CYP2C8: 8 and 80 μmol/L, CYP2C19: 12 and 120 μmol/L) by 75× dilution with purified water that contained 2.7% acetonitrile. The test compounds were adjusted to […] with DMSO and were adjusted to 4 and 40 μmol/L by 75× dilution with purified water that contained 2.7% acetonitrile. A reaction mixture was then prepared (the numerical values are final concentrations) by the addition of potassium phosphate buffer (pH 7.4), magnesium chloride ([…]), substrate (CYP2C8: dibenzylfluorescein 1 μmol/L, CYP2C19: 3-cyano-7-ethoxycoumarin 25 μmol/L), and E. coli-expressed liver microsome CYP2C8 (Cypex, 10 pmol/L) and CYP2C19 (Cypex, 3 pmol/L). 100 μL of this reaction mixture and 50 μL of the test compound prepared as described above and the positive control solution prepared as described above were dispensed into each well and pre-incubation was carried out at 10 minutes for 37° C. The reaction was started by the addition of 50 μL NADPH solution (final concentration=1 mmol/L) and incubation was carried out for 30 minutes at 37° C. The fluorescence intensity was measured (CYP2C8: excitation wavelength=485 nm, fluorescence wavelength=538 nm; CYP2C19: excitation wavelength=409 nm, fluorescence wavelength=460 nm) immediately after the addition of the NADPH and after incubation for 30 minutes.

[1] = Stability in the rat liver microsome; settings: 0.5 mg/mL microsomes, NADPH, 15 minutes at 37° C.
Protocol: Evaluation of the Stability in the Rat and Human Liver Microsome
A 0.25 mmol/L solution was prepared by diluting the test compound (10 mmol/L DMSO solution, 5 μL) with an aqueous 50% acetonitrile solution (195 μL).
20 μL was collected immediately after the start and the reaction was stopped by the addition to 180 μL of acetonitrile that contained an internal standard (warfarin). 20 μL of this solution was stirred with 180 μL of an aqueous 50% acetonitrile solution on a filter plate for protein depletion followed by suction filtration, and the filtrate was used as the standard sample.
The previously indicated reaction solution was incubated for 15 minutes at 37° C., and 20 μL was then added to 180 μL cold acetonitrile (contained the internal standard warfarin) to stop the reaction. 20 μL of this was stirred with 180 μL of an aqueous 50% acetonitrile solution on a filter plate for protein depletion followed by suction filtration, and the filtrate was used as the standard sample.

Human liver cells = assay: Cytotoxicity in cultured human hepatoma cells (ATP concentration, Celltiter Glo); format: cell-based; settings: 50% decline in ATP concentration, exposure for 24 hours, read-out: Toxicity for human liver cells (IC50 (μM))
Protocol: Measurement of the Cytotoxicity and Ability to Reduce the Mitochondrial Membrane Potential in Cultured Human Hepatoma Cells
Human liver cells were seeded into a collagen-coated 96-well plate at a cell density of 30,000 cells/well and incubation was carried out overnight in an incubator at 37° C. in 5% CO2-95% air. The cultured cells were stained for 1 hour with 5,5′,6,6′-tetrahydro-1,1′,3,3′-tetramethyl-benzamidazolocarbocyanine iodide (JC-1) followed by treatment with the test compound. The test compound was dissolved in DMSO and then diluted with the liquid culture medium Hepatocyte Culture Medium (HCM) and added to the cells. The test compound treatment concentrations were 0, 6.25, 12.5, 25, 50, 100, 200, and 400 μmol/L. After exposure to the test compound for 24 hours, measurement was performed with a SpectraMax plate reader (Molecular Devices, LLC) at an excitation wavelength of 485 nm and a fluorescence wavelength of 538 nm and an excitation wavelength of 544 nm and a fluorescence wavelength of 590 nm. The membrane potential was determined by the ratio between the 544 nm/590 nm measurement value and the 485 nm/538 nm measurement value. After this, the ATP concentration in the cells was measured using a Celltiter Glo luminescent assay kit (Promega Corporation) in order to evaluate the cell toxicity of the test compound. The cells were lysed by the assay buffer provided with the measurement kit and the concentration of the ATP released from the cells was measured using the luciferin-luciferase enzyme activity as the index. The emission was measured using a SpectraMax plate reader. […] The ability to lower the mitochondrial membrane potential of the test compounds and the cytotoxicity of the test compounds are given in Table 3 below.

Sequence of Human CYP2C19 (P33261 whole entry): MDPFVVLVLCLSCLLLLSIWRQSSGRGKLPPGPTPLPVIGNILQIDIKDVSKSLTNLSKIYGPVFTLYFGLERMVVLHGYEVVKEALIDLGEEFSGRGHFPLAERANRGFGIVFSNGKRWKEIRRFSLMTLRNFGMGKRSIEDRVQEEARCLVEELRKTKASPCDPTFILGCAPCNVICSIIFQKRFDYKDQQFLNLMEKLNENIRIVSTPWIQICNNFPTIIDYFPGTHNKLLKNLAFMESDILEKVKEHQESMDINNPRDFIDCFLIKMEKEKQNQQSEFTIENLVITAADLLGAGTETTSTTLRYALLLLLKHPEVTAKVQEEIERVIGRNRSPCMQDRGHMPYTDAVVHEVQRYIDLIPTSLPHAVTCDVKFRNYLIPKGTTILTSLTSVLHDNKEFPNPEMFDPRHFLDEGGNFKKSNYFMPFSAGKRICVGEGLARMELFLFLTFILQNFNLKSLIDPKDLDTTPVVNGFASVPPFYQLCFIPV
Sequence of Fyn (P06241 whole entry): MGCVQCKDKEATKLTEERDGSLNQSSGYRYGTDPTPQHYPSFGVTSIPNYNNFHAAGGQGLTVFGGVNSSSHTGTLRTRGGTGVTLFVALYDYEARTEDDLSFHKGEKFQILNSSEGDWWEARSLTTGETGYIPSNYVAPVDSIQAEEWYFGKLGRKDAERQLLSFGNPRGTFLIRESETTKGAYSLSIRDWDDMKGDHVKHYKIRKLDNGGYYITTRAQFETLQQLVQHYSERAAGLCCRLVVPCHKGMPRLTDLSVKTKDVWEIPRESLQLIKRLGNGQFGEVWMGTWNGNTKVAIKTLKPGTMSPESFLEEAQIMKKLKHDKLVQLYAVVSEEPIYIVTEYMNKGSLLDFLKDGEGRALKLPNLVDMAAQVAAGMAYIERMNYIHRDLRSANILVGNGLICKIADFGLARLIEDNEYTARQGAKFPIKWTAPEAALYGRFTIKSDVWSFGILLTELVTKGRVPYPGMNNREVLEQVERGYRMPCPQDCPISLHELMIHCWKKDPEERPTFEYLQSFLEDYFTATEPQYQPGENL

Fyn[IC50]/Btk[IC50] (Fyn): 453 | pIC50 (Human CYP2C19): < 5.00 | Residual ratio (%) in the rat liver microsome [1]: 100%
SMILES: C=CC(=O)N1CC(n2c(=O)n(-c3ccc(Oc4ccccc4)cc3)c3c(N)ncnc32)C1 [Example 8, 9-(1-acryloyl-3-azetidinyl)-6-amino-7-(4-phenoxyphenyl)-7,9-dihydro-8H-purin-8-one]
IC50 (Human liver cells): 290 µM
